Consider one molecule from ChEMBL document CHEMBL4130413, “1-Aryl-1H- and 2-aryl-2H-1,2,3-triazole derivatives blockade P2X7 receptor in vitro and inflammatory response in vivo” (Eur J Med Chem, 2017).

Active and inactive are the calls of the source. No cut-off for these calls is given here.

One data set has as its system Peritoneal macrophage. In words: Toxicity in Swiss mouse peritoneal macrophages assessed as LDH release at 10 uM after 60 mins relative to 0.05% Triton X-100. The conditions noted are these: 1 h. Type of data set: cell-based.
For data set [1], the target named is T1, P2X purinoceptor 7 (Homo sapiens) (UniProt Q99572).
T1 sequence (whole entry): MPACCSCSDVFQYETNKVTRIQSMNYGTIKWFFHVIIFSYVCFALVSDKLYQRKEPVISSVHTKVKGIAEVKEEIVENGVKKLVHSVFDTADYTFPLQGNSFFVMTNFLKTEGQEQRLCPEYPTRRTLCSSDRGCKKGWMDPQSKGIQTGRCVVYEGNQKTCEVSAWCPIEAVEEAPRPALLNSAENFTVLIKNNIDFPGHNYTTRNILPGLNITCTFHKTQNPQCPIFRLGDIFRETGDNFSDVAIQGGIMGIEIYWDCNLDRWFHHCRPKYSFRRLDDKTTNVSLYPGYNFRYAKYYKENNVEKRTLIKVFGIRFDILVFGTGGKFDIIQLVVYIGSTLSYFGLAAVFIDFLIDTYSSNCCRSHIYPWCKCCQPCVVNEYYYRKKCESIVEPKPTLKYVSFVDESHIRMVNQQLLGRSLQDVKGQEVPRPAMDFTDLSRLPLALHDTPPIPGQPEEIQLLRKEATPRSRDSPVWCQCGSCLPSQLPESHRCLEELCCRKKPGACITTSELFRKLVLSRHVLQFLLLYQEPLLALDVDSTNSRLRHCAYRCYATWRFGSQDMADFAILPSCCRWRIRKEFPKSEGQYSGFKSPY
In words: Antagonist activity at human P2X7 receptor expressed in HEK293 cells assessed as inhibition of ATP-induced ethidium iodide uptake at 10 uM preincubated for 10 mins followed by ATP addition measured after 20 mins by FLIPR assay relative to 1 mM ATP. Type of data set: cell-based.

Data set [2] has as its target T2, P2X purinoceptor 7 (Mus musculus) (UniProt Q9Z1M0).
T2 sequence (whole entry): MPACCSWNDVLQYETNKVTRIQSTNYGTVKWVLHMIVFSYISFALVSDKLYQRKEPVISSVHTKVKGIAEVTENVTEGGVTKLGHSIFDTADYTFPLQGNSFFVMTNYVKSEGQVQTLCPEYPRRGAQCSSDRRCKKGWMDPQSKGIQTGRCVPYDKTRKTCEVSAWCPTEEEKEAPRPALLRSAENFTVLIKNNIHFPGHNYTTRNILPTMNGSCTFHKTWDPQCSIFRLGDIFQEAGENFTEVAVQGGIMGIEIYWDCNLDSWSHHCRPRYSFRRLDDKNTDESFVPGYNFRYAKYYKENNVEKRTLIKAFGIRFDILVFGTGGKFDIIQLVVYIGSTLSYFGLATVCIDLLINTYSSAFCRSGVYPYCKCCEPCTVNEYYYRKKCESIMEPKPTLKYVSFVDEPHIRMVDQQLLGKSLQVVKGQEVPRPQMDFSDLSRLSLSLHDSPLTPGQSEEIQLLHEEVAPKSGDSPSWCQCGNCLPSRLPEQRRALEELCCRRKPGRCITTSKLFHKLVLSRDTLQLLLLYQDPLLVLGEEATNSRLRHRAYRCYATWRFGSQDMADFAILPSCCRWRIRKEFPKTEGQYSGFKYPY
In words: (§1) Antagonist activity at P2X7 receptor in Swiss mouse peritoneal macrophages assessed as inhibition of ATP-induced propidium iodide uptake after 25 mins by flow cytometric analysis.

The target in data set [3] is T3, P2X purinoceptor 7 (Mus musculus, UniProt Q9Z1M0).
T3 sequence (Q9Z1M0 whole entry): T2 sequence (whole entry)
The description is as §1.

In data set [4] the target is T3, P2X purinoceptor 7. In words: Antagonist activity at P2X7 receptor in Swiss mouse peritoneal macrophages assessed as inhibition of ATP-induced current at holding potential of -60 mV preincubated for 5 mins followed by ATP addition measured after 5 mins by Whole cell patch-clamp analysis.
Data set [5] is described as follows: Cytotoxicity against Swiss mouse peritoneal macrophages after 24 hrs by LDH-release assay. Type of data set: cell-based, Peritoneal macrophage.
Data set [6] deals with T1, P2X purinoceptor 7 (Homo sapiens). In words: (§2) Antagonist activity at P2X7 receptor in LPS/IFNc-differentiated human THP-1 cells assessed as inhibition of ATP-induced IL-1beta release preincubated for 30 mins followed by LPS stimulation for 4 hrs using cells treated with ATP for 30 mins by ELISA. It counts as cell-based.
Data set [7] has as its target T4, P2X purinoceptor 7 (Homo sapiens, UniProt Q99572).
T4 sequence (Q99572 whole entry): T1 sequence (whole entry)
The data set is described as §2. It counts as cell-based.

Data set [8] can be described thus: Intrinsic clearance in human liver microsomes assessed per mg protein at 1 uM measured up to 45 mins. Type of data set: ADME, microsome. The conditions noted are these: read-out: CLH.
Data set [9] in a line: Kinetic solubility in pH 2 hydrochloride buffer at 1 to 250 uM after 2 hrs. The conditions noted are these: read-out: Kinetic_solubility. It counts as physicochemical.
Data set [10] can be described thus: Kinetic solubility in pH 4 citrate buffer at 1 to 250 uM after 2 hrs. The conditions noted are these: read-out: Kinetic_solubility. It counts as physicochemical.
Data set [11] is described as follows: Kinetic solubility in pH 7.4 phosphate buffer at 1 to 250 uM after 2 hrs. The conditions noted are these: read-out: Kinetic_solubility. It counts as physicochemical.
A short description of data set [12]: Kinetic solubility in pH 10 sodium hydroxide buffer at 1 to 250 uM after 2 hrs. Type of data set: physicochemical. The conditions noted are these: read-out: Kinetic_solubility.
A short description of data set [13]: n-Octanol/PBS distribution coefficient, log D of the compound at pH 7.4 at 25 mM after 2 hrs. Type of data set: physicochemical.
Data set [14] deals with Mus musculus. In words: Anti-inflammatory activity in ip dosed Swiss Webster mouse assessed as inhibition of carrageenan-induced paw edema pretreated for 60 mins followed by carrageenan administration and measured after 30 mins. Type of data set: functional.
Data set [15] has as its system Mus musculus. In words: Anti-inflammatory activity in po dosed Swiss Webster mouse assessed as inhibition of carrageenan-induced paw edema pretreated for 60 mins followed by carrageenan administration and measured after 60 mins. Type of data set: functional.
In data set [16] the test system is Mus musculus. In words: Anti-inflammatory activity in Swiss mouse assessed as inhibition of LPS-induced pleural accumulation in total leucocytes at 1 to 100 ng/kg, ip pretreated for 1 hr followed by LPS stimulation and measured after 24 hrs by May-Grunwald-Giemsa staining-based Neubauer chamber based optical microscopy. Type of data set: functional, organism-based.

For data set [17], the system named is Mus musculus. In words: Anti-inflammatory activity in Swiss mouse assessed as inhibition of LPS-induced pleural accumulation in neutrophils at 1 to 100 ng/kg, ip pretreated for 1 hr followed by LPS stimulation and measured after 24 hrs by May-Grunwald-Giemsa staining-based Neubauer chamber based optical microscopy. Type of data set: functional, organism-based.

The test system of data set [18] is Mus musculus. In words: Anti-inflammatory activity in Swiss mouse assessed as inhibition of LPS-induced nitric oxide production in pleural washes at 1 to 100 ng/kg, ip pretreated for 1 hr followed by LPS stimulation and measured after 24 hrs by Lowry/Griess analysis. It counts as functional, organism-based.
Data set [19] has as its target P2X purinoceptor 7 (Mus musculus) (UniProt Q9Z1M0). In words: Antagonist activity at P2X7 receptor in Swiss mouse peritoneal macrophages assessed as inhibition of ATP-induced propidium iodide uptake at 10 uM after 30 mins by FLIPR assay relative to 1 mM ATP.
Data set [20] has as its target T3, P2X purinoceptor 7. In words: Antagonist activity at P2X7 receptor in LPS/IFNc-differentiated Swiss mouse peritoneal macrophages assessed as inhibition of ATP-induced IL-1beta release preincubated for 30 mins followed by LPS stimulation for 4 hrs using cells treated with ATP for 30 mins by ELISA.

In the case of `CCOCc1cn(-c2ccc(Cl)cc2)nn1`, the Activity in the data set with Peritoneal macrophage is 8.33%; in [6], “Dose-dependent effect”; in the data set on Mus musculus [14], “Dose-dependent effect”. The values for the inhibition in [1], in data set [2] and in data set [19] were 96.9%, “Dose-dependent effect” and 84.7%, respectively. Also, the IC50 at P2X purinoceptor 7 [3] is 83 nM; on P2X purinoceptor 7 [4], 69 nM; on P2X purinoceptor 7 [7], 67.5 nM; on P2X purinoceptor 7 [20], 91 nM. In addition, the 50% cytotoxic concentration (CC50) at 24 h in data set [5] was 4030 nM. In addition, the microsomal CLint at 1 µM in data set [8] was 30.2 µL/min/mg. In addition, the solubility kinetic at 2 h in data set [9], in data set [10], in data set [11] and in data set [12] was less than 250 µM each time. For the same molecule, the pH-dependent lipophilicity (logD) at 2 h, 25000 µM in data set [13] was -1.96. Also, the ID50 in the data set with Mus musculus [14] stood at 0.09435 µg/kg; in the data set on Mus musculus [15] it was 0.08049 µg/kg. The outcome in the data set with Mus musculus [16] and in the data set with Mus musculus [18] was Active. Also, in the data set with Mus musculus [17], the result was inactive.
